Measurements published in patent US6013200A, “Low toxicity corrosion inhibitor” (Baker Hughes Incorporated, priority 1997, dated 2000).
Values after ≈ are worked out from the molar mass of the structure shown.

Tests used:
[1] = test system: Skeletonema costatum; assay: Aquatic toxicity testing; assay type: in vivo
[2] = Biodegradability in sea water; conditions: after 28 days

`NCCN1CCNC1=S` [1-(2-aminoethyl)-2-imidazolidinethione] gave an EC50 [1] of 236 µg/mL (≈ 1620 µM) and a biodegradability [2] of 100%.
